Data as given in US11980688B2, “Nanoliposome-microbubble conjugate including drug for hair loss treatment encapsulated in nanoliposome and composition for alleviating or treating hair loss containing same” (priority 2018, dated 2024).

Legend:
C57BL/6J mice = test: Testosterone-induced hair loss mouse model, hair growth; type: in vivo; conditions: FIG. 5
Method: The hair on the back of each of 6-week-old mice (C57BL/6J) was epilated using an animal epilator (Philips) and hair removal cream (Veet), after which testosterone was dissolved in a mixed solution of propylene glycol and ethanol (3:7 (v:v)) and applied every day at a concentration of 30 μg/ml, and thus an environment similar to that of human hair loss was made.
In the present experiment, the individual test groups were as follows (testosterone was applied to the skin in all cases). • (1) A control group (non-treated group); • (2) A group treated with testosterone; • (3) A group treated with testosterone and then subjected to skin application with the nanoliposome-microbubble conjugate of Example 1; • (4) A group treated with testosterone and then subjected to oral administration with a commercially available finasteride solution; • (5) A group treated with testosterone and then subjected to skin application with a commercially available finasteride solution; • (6) A group treated with testosterone and then subjected to skin application with the nanoliposome of Comparative Example 1; and • (7) A group subjected to skin application with the nanoliposome-microbubble conjugate of Example 1.
A nanoliposome-microbubble conjugate (HTP) configured such that the nanoliposome and the microbubble were conjugated and dispersed at a ratio of 2:1 was used. 200 μl thereof, having a total finasteride content of 1 μg, was applied on the entire epilated back of the mice using a plastic spatula, and after 3 min, was exposed to ultrasound using a medical sonicator. Here, the nanoliposome-microbubble conjugate was applied five times at an interval of one day. Under the same conditions, the total finasteride content was matched in the group treated with the commercially available finasteride solution in lieu of the solution of Example 1 or Comparative Example 1. […]

DPCs = test: Cell viability, WST-1 assay, testosterone-induced apoptosis; type: cell-based; conditions: 200 μM testosterone, every 24 hr for 4 days, DPCs compared to 3T3 fibroblasts, FIG. 4 left
Method: Cell viability was evaluated through WST-1 assay (EZ-cytox Cell Viability Assay Kit). DPCs and 3T3 fibroblasts were cultured at a density of 1×10^4/well in a 96-well plate for 24 hr. Here, the culture medium was replaced with a new medium containing 200 μM testosterone, and after 24 hr, a WST-1 reagent was added thereto. The WST-1 reagent was added in an amount of 10% of the culture broth, and after 1 hr, absorbance was measured at 460 nm and thus cell survival and proliferation were compared with a control group (non-treated group). Cell survival was measured at an interval of 24 hr for 4 days after testosterone treatment.
After treatment with the nanoliposome-microbubble conjugate (HTP) of the present invention before treatment with testosterone in the same manner, the culture medium was replaced with a new medium containing 200 μM testosterone, the subsequent procedures were conducted as above, and the state of cells was observed. A comparative group was treated with the nanoliposome-microbubble conjugate (HTP) alone.

Row | Structure (SMILES) | hair growth after testosterone, skin application (C57BL/6J mice; testosterone 30 μg/ml daily, total finasteride 1 μg, applied five times at one-day interval) | hair growth after testosterone, oral administration (C57BL/6J mice; testosterone daily, oral dose 10 times the application dose, five times) | extent of apoptosis over time (DPCs) | hair growth, testosterone alone (C57BL/6J mice; testosterone 30 μg/ml applied every day to epilated back)
1 | CC(C)(C)NC(=O)[C@H]1CC[C@H]2[C@@H]3CC[C@H]4NC(=O)C=C[C@]4(C)[C@H]3CC[C@]12C [commercially available finasteride drug, finasteride] | hair started growing on the seventh week | hair started growing on the seventh week |  | 
2 | C[C@]12CC[C@H]3[C@@H](CCC4=CC(=O)CC[C@@]43C)[C@@H]1CC[C@@H]2O [testosterone] |  |  | greatly increased in DPCs compared to 3T3 cells | grew hardly any hair
